Measured values reported in patent publication US4398937A, “Selective algaecides for control of cyanochloronta” (The University of Southern Mississippi, priority 1981, dated 1983).
Like-named read-outs stand apart in the source and are kept apart here.

Tests used:
Type in all cases: cell-based
Anabaena flos-aquae = test: Test tube culture inhibition of Anabaena flos-aquae, algal units/ml; details: for inhibition of growth at 10 ppm: Dolichospermum flos-aquae, 120 h, read-out: reduction of algal units/ml of the control
Method: (§1) The algae used in this particular study were Chlamydomonas sp., Chlorella vulgaris, Anabaena sp., and Anabaena flos-aquae. Cultures of these algae were obtained, subcultured, and aqueous stocks of algae in 400 ml BBM were prepared and were used in log phase growth to innoculate test cultures.
(§2) The fatty acids which were tested as algal inhibitors were 9, 10-dihydroxystearic acid, linoleic acid, dodecanoic acid, and ricinoleic acid.
(§3) The test procedure involved placing 15 ml of BBM into 25 ml test tubes and innoculating them with 0.2 ml of algal stock solution. Twenty test tubes were innoculated with each algae. Four of these cultures were used with each concentration of each of the fatty acids. Four tubes from each set served as controls. Four concentrations of the fatty acids were used for each alga. The concentrations studied were 0.5 PPM, 1.0 PPM, 5.0 PPM, and 10.0 PPM.
(§4) Algal cultures were incubated under constant light of about 200 foot-candles and at a temperature of 68° F. Bold's Basal Medium (BBM), a modification of Bristol's solution was the medium in which all the cultures were grown. Bold's Basal Medium was prepared as follows:
(§5) Concentrations of fatty acids and the amount of stock solution used to prepare them were as follows:
(§6) Each test tube contained 15 ml sterile BBM. To this was added an aliquot of 0.2 of algal stock solution. Then the appropriate aliquots of warm acid stock solution were added to the appropriate number of culture tubes. These cultures were then incubated 5 days and at that point were counted. The same cultures were also counted after a 12 day growth period.
(§7) Stock solutions of the fatty acids to be tested as algal inhibitors were made from a stock solution of 5% sodium bicarbonate in glass-distilled water. The 5% sodium bicarbonate stock solution was made by dissolving 150 grams of sodium bicarbonate in 3000 ml of glass-distilled water. To insure complete dissolution, the solution was heated and stirred on a magnetic stirrer hot plate. The warm solution was used in preparing the fatty acid stock solutions.
(§8) Quanitative phytoplankton values were determined using the random field method. Filaments, colonies, and aggregations of cells were recorded as algal units. Each unit consisted of approximately 6 cells. Unicellular algae were counted as separate units. Algal counts were made from each of three duplicate cultures. One ml of the algal sample was placed in a Sedgwick-Rafter counting chamber, which is 50 mm long by 20 mm, wide by 1 mm deep. A Wild Heerbrugg, compound microscope with a Whipple grid eyepiece was used to determine quantitative algae values.
(§9) One ml of the algal solution was placed in the counting chamber, and two drops of methyl cellulose were added to minimize the movement of Chlamydomonas sp. Ten random fields were counted and all organisms within the Whipple grid field were enumerated.
(§10) The following formula used to calculate the numbers per milliliter from the field counts: [formula] where: C=number of organisms counted,
(§11) The area of the Whipple grid used was 0.46 mm^2, and the depth of a field was 1 mm. Results of the counts were reported as algal units/ml.

Anabaena sp. = test: Test tube culture inhibition of Anabaena sp., algal units/ml; details: for inhibition of growth at 10 ppm: read-out: reduction of algal units/ml, % of the control
Method: as §1, §2, §3, §4, §5, §6, §7, §8, §9, §10, §11

Chlamydomonas sp. = test: Test tube culture inhibition of Chlamydomonas sp., algal units/ml; details: for reduction of number of algal units/ml vs control / inhibition of growth at 10 ppm: 10 PPM; for inhibition of growth at 10 ppm: Chlamydomonas, 120 h, read-out: reduction of number of algal units/ml, % of the control
Method: as §1, §2, §3, §4, §5, §6, §7, §8, §9, §10, §11

Chlorella vulgaris = test: Test tube culture inhibition of Chlorella vulgaris, algal units/ml
Method: as §1, §2, §3, §4, §5, §6, §7, §8, §9, §10, §11

CCCCCCCCC(O)C(O)CCCCCCCC(=O)O (centres unmarked) [9,10-Dihydroxystearic Acid, 9,10-dihydroxystearic acid]
Algal units/ml (Anabaena flos-aquae; 5 days, 0.5 PPM): 4348 units/ml
Algal units/ml (Anabaena flos-aquae; 5 days, 1.0 PPM): 4348 units/ml
effect on algal growth (Anabaena flos-aquae; 5 days, 1.0 PPM and less): stimulated
Algal units/ml (Anabaena flos-aquae; 5 days, 5.0 PPM): 2174 units/ml
Algal units/ml (Anabaena flos-aquae; 5 days, 10.0 PPM): 217 units/ml
Algal units/ml (Anabaena flos-aquae; 12 days, 0.5 PPM): 18478 units/ml
Algal units/ml (Anabaena flos-aquae; 12 days, 1.0 PPM): 13478 units/ml
Algal units/ml (Anabaena flos-aquae; 12 days, 5.0 PPM): 9130 units/ml
Algal units/ml (Anabaena flos-aquae; 12 days, 10.0 PPM): 3261 units/ml
effect on algal growth (Anabaena flos-aquae; 12 days, all concentrations): inhibitory effect
inhibition of growth at 10 ppm (Anabaena flos-aquae; 5 days): 90.9%
Algal units/ml (Anabaena sp.; 5 days, 0.5 PPM): 34130 units/ml
Algal units/ml (Anabaena sp.; 5 days, 1.0 PPM): 38043 units/ml
Algal units/ml (Anabaena sp.; 5 days, 5.0 PPM): 30217 units/ml
Algal units/ml (Anabaena sp.; 5 days, 10.0 PPM): 23261 units/ml
inhibition (Anabaena sp.; 5 days, 10.0 PPM): effective as a inhibitor
inhibition of growth at 10 ppm (Anabaena sp.; 288 h, 12 days, 10 PPM): 16.6%
Algal units/ml (Anabaena sp.; 12 days, 0.5 PPM): 158043 units/ml
Algal units/ml (Anabaena sp.; 12 days, 1.0 PPM): 166739 units/ml
Algal units/ml (Anabaena sp.; 12 days, 5.0 PPM): 106957 units/ml
Algal units/ml (Anabaena sp.; 12 days, 10.0 PPM): 98473 units/ml
Algal units/ml (Chlamydomonas sp.; 5 days, 0.5 PPM): 10217 units/ml
Algal units/ml (Chlamydomonas sp.; 5 days, 1.0 PPM): 10436 units/ml
Algal units/ml (Chlamydomonas sp.; 5 days, 5.0 PPM): 11304 units/ml
reduction of number of algal units/ml vs control (Chlamydomonas sp.; 5 days): 5,000 algal units/ml
Algal units/ml (Chlamydomonas sp.; 5 days, 10.0 PPM): 6522 units/ml
Algal units/ml (Chlamydomonas sp.; 12 days, 0.5 PPM): 47826 units/ml
Algal units/ml (Chlamydomonas sp.; 12 days, 1.0 PPM): 46739 units/ml
Algal units/ml (Chlamydomonas sp.; 12 days, 5.0 PPM): 50000 units/ml
Algal units/ml (Chlamydomonas sp.; 12 days, 10.0 PPM): 53478 units/ml
inhibition of growth at 10 ppm (Chlamydomonas sp.; 5 days): 43.4%

CCCCCCCCCCCC(=O)O [Dodecanoic Acid, dodecanoic acid]
effect on algal growth (Anabaena flos-aquae; 5 and 12 days, all concentrations): some inhibitory effects
Algal units/ml (Anabaena flos-aquae; 5 days, 0.5 PPM): 1087 units/ml
Algal units/ml (Anabaena flos-aquae; 5 days, 1.0 PPM): 2174 units/ml
Algal units/ml (Anabaena flos-aquae; 5 days, 5.0 PPM): 2714 units/ml
Algal units/ml (Anabaena flos-aquae; 5 days, 10.0 PPM): 2174 units/ml
Algal units/ml (Anabaena flos-aquae; 12 days, 0.5 PPM): 20435 units/ml
Algal units/ml (Anabaena flos-aquae; 12 days, 1.0 PPM): 7609 units/ml
Algal units/ml (Anabaena flos-aquae; 12 days, 5.0 PPM): 6739 units/ml
Algal units/ml (Anabaena flos-aquae; 12 days, 10.0 PPM): 6522 units/ml
inhibition of growth at 10 ppm (Anabaena sp.; 120 h): 22.7%
Algal units/ml (Anabaena sp.; 5 days, 0.5 PPM): 40435 units/ml
Algal units/ml (Anabaena sp.; 5 days, 1.0 PPM): 32609 units/ml
Algal units/ml (Anabaena sp.; 5 days, 5.0 PPM): 28261 units/ml
Algal units/ml (Anabaena sp.; 5 days, 10.0 PPM): 28696 units/ml
inhibition of growth at 10 ppm (Anabaena sp.; 288 h): 22.7%
Algal units/ml (Anabaena sp.; 12 days, 0.5 PPM): 139348 units/ml
Algal units/ml (Anabaena sp.; 12 days, 1.0 PPM): 135217 units/ml
Algal units/ml (Anabaena sp.; 12 days, 5.0 PPM): 92826 units/ml
Algal units/ml (Anabaena sp.; 12 days, 10.0 PPM): 91204 units/ml
Algal units/ml (Chlamydomonas sp.; 5 days, 0.5 PPM): 10652 units/ml
Algal units/ml (Chlamydomonas sp.; 5 days, 1.0 PPM): 10435 units/ml
Algal units/ml (Chlamydomonas sp.; 5 days, 5.0 PPM): 12609 units/ml
Algal units/ml (Chlamydomonas sp.; 5 days, 10.0 PPM): 11957 units/ml
Algal units/ml (Chlamydomonas sp.; 12 days, 0.5 PPM): 47174 units/ml
Algal units/ml (Chlamydomonas sp.; 12 days, 1.0 PPM): 48696 units/ml
Algal units/ml (Chlamydomonas sp.; 12 days, 5.0 PPM): 46304 units/ml
Algal units/ml (Chlamydomonas sp.; 12 days, 10.0 PPM): 50217 units/ml
Algal units/ml (Chlorella vulgaris; 5 days, 0.5 PPM): 8913 units/ml
Algal units/ml (Chlorella vulgaris; 5 days, 1.0 PPM): 11304 units/ml
Algal units/ml (Chlorella vulgaris; 5 days, 5.0 PPM): 11304 units/ml
Algal units/ml (Chlorella vulgaris; 5 days, 10.0 PPM): 10435 units/ml
Algal units/ml (Chlorella vulgaris; 12 days, 0.5 PPM): 217391 units/ml
Algal units/ml (Chlorella vulgaris; 12 days, 1.0 PPM): 217391 units/ml
Algal units/ml (Chlorella vulgaris; 12 days, 5.0 PPM): 217391 units/ml
Algal units/ml (Chlorella vulgaris; 12 days, 10.0 PPM): 217391 units/ml

CCCCC/C=C\C/C=C\CCCCCCCC(=O)O [Linoleic Acid, linoleic acid]
Algal units/ml (Anabaena flos-aquae; 5 days, 0.5 PPM): 1087 units/ml
effect on algal growth (Anabaena flos-aquae; 5 days, 0.5 PPM): inhibition
Algal units/ml (Anabaena flos-aquae; 5 days, 1.0 PPM): 3261 units/ml
effect on algal growth (Anabaena flos-aquae; 5 days, 1.0 PPM): stimulation
Algal units/ml (Anabaena flos-aquae; 5 days, 5.0 PPM): 1087 units/ml
Algal units/ml (Anabaena flos-aquae; 5 days, 10.0 PPM): 217 units/ml
Algal units/ml (Anabaena flos-aquae; 12 days, 0.5 PPM): 14565 units/ml
Algal units/ml (Anabaena flos-aquae; 12 days, 1.0 PPM): 8261 units/ml
Algal units/ml (Anabaena flos-aquae; 12 days, 5.0 PPM): 4130 units/ml
Algal units/ml (Anabaena flos-aquae; 12 days, 10.0 PPM): 3969 units/ml
effect on algal growth (Anabaena flos-aquae; 12 days, all concentrations): inhibitory effect
inhibition of growth at 10 ppm (Anabaena flos-aquae; 5 days): 90.9%
inhibition of growth at 10 ppm (Anabaena sp.; 120 h, 5 days, 10.0 PPM): 38.1%
Algal units/ml (Anabaena sp.; 5 days, 0.5 PPM): 45217 units/ml
Algal units/ml (Anabaena sp.; 5 days, 1.0 PPM): 46957 units/ml
Algal units/ml (Anabaena sp.; 5 days, 5.0 PPM): 32609 units/ml
Algal units/ml (Anabaena sp.; 5 days, 10.0 PPM): 19783 units/ml
reduction in algal units/ml vs control (Anabaena sp.; 5 days, 10.0 PPM): 12,174 algal units/ml
inhibition of growth at 10 ppm (Anabaena sp.; 288 h, 12 days, 10 PPM): 19.5%
Algal units/ml (Anabaena sp.; 12 days, 0.5 PPM): 114565 units/ml
Algal units/ml (Anabaena sp.; 12 days, 1.0 PPM): 135217 units/ml
Algal units/ml (Anabaena sp.; 12 days, 5.0 PPM): 98261 units/ml
Algal units/ml (Anabaena sp.; 12 days, 10.0 PPM): 95000 units/ml
Algal units/ml (Chlamydomonas sp.; 5 days, 0.5 PPM): 11087 units/ml
Algal units/ml (Chlamydomonas sp.; 5 days, 1.0 PPM): 12609 units/ml
Algal units/ml (Chlamydomonas sp.; 5 days, 5.0 PPM): 12391 units/ml
reduction of number of algal units/ml vs control (Chlamydomonas sp.; 5 days): 5,000 algal units/ml
Algal units/ml (Chlamydomonas sp.; 5 days, 10.0 PPM): 6522 units/ml
Algal units/ml (Chlamydomonas sp.; 12 days, 0.5 PPM): 45652 units/ml
Algal units/ml (Chlamydomonas sp.; 12 days, 1.0 PPM): 52174 units/ml
Algal units/ml (Chlamydomonas sp.; 12 days, 5.0 PPM): 50000 units/ml
Algal units/ml (Chlamydomonas sp.; 12 days, 10.0 PPM): 51087 units/ml
inhibition of growth at 10 ppm (Chlamydomonas sp.; 5 days): 43.4%
Algal units/ml (Chlorella vulgaris; 5 days, 0.5 PPM): 8697 units/ml
Algal units/ml (Chlorella vulgaris; 5 days, 1.0 PPM): 12174 units/ml
Algal units/ml (Chlorella vulgaris; 5 days, 5.0 PPM): 10870 units/ml
Algal units/ml (Chlorella vulgaris; 5 days, 10.0 PPM): 11304 units/ml
Algal units/ml (Chlorella vulgaris; 12 days, 0.5 PPM): 195652 units/ml
Algal units/ml (Chlorella vulgaris; 12 days, 1.0 PPM): 239130 units/ml
Algal units/ml (Chlorella vulgaris; 12 days, 5.0 PPM): 304348 units/ml
Algal units/ml (Chlorella vulgaris; 12 days, 10.0 PPM): 195652 units/ml
